In patent publication US8952024B2, “Herbicidal pyrimidone derivatives” (E I du Pont de Nemours and Company, priority 2009, dated 2015):

Columns and labels:
Assay in all cases: Test D pre-/postemergence plant response
Format in all cases: in vivo
[1] = system: Russian thistle (Salsola kali)
In short: (§1)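 Under greenhouse conditions for 14 to 21 days, plants treated pre- or postemergence with surfactant-formulated compound were compared by eye with untreated controls and scored 0–100 (100 = complete control; dash = no result).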

[2] = system: spanishneedles (Bidens bipinnata)
In short: as §1

[3] = system: Italian ryegrass (Lolium multiflorum)
In short: as §1

[4] = system: ragweed (common ragweed, Ambrosia elatior)
In short: as §1

[5] = system: chickweed (common chickweed, Stellaria media); details: Postemergence
In short: as §1

[6] = system: signalgrass (broadleaf signalgrass, Brachiaria platyphylla)
In short: as §1

[7] = system: large crabgrass (Digitaria sanguinalis)
In short: as §1

[8] = system: black mustard (Brassica nigra)
In short: as §1

[9] = system: purslane (common purslane, Portulaca oleracea)
In short: as §1

[10] = system: nutsedge (purple nutsedge, Cyperus rotundus)
In short: as §1

[11] = system: bluegrass (annual bluegrass, Poa annua)
In short: as §1

[12] = system: field bindweed (Convolvulus arvensis)
In short: as §1

[13] = system: sandbur (southern sandbur, Cenchrus echinatus)
In short: as §1

[14] = system: quackgrass (Elytrigia repens)
In short: as §1

[15] = system: morningglory (pitted morningglory, Ipomoea lacunosa)
In short: as §1

[16] = system: prickly sida (Sida spinosa)
In short: as §1

[17] = Postemergence, 125 g ai/ha, scale 0 to 100 (0 no effect, 100 complete control)
[18] = Preemergence, 16 g ai/ha, scale 0 to 100, 0 no effect, 100 complete control
[19] = Preemergence, 31 g ai/ha, scale 0 to 100 (0 no effect, 100 complete control)
[20] = Preemergence, 125 g ai/ha, scale 0 to 100
[21] = Postemergence, 16 g ai/ha, scale 0 to 100
[22] = Postemergence, 31 g ai/ha, scale 0 to 100
[23] = Postemergence, 62 g ai/ha, scale 0 to 100 (0 no effect, 100 complete control)
[24] = Preemergence, 62 g ai/ha, scale 0 to 100
[25] = Postemergence, 31 g ai/ha, scale 0 to 100 (0 no effect, 100 complete control)

O=C1CCCC(O)=C1C(=O)c1cnc(C2CC2)n(-c2ccccc2)c1=O [Compound 87]
Plant response rating, Russian Thistle [1, 17]: 35
Plant response rating, Russian Thistle [1, 18]: 50
Plant response rating, Russian Thistle [1, 19]: 75
Plant response rating, Russian Thistle [1, 20]: 100
Plant response rating, Spanishneedles [2, 21]: 60
Plant response rating, Spanishneedles [2, 22]: 60
Plant response rating, Spanishneedles [2, 17]: 70
Plant response rating, Spanishneedles [2, 23]: 60
Plant response rating, Spanishneedles [2, 18]: 0
Plant response rating, Spanishneedles [2, 19]: 65
Plant response rating, Spanishneedles [2, 20]: 98
Plant response rating, Ryegrass, Italian [3, 21]: 0
Plant response rating, Ryegrass, Italian [3, 22]: 0
Plant response rating, Ryegrass, Italian [3, 17]: 5
Plant response rating, Ryegrass, Italian [3, 23]: 0
Plant response rating, Ryegrass, Italian [3, 18]: 0
Plant response rating, Ryegrass, Italian [3, 19]: 0
Plant response rating, Ryegrass, Italian [3, 20]: 30
Plant response rating, Ragweed [4, 21]: 70
Plant response rating, Ragweed [4, 22]: 80
Plant response rating, Ragweed [4, 17]: 98
Plant response rating, Ragweed [4, 23]: 95
Plant response rating, Ragweed [4, 18]: 30
Plant response rating, Ragweed [4, 19]: 98
Plant response rating, Ragweed [4, 20]: 98
Plant response rating, Chickweed ([5]; 16 g ai/ha, scale 0 to 100): 75
Plant response rating, Chickweed ([5]; 31 g ai/ha, scale 0 to 100): 75
Plant response rating, Chickweed ([5]; 125 g ai/ha, scale 0 to 100 (0 no effect, 100 complete control)): 100
Plant response rating, Chickweed ([5]; 62 g ai/ha, scale 0 to 100 (0 no effect, 100 complete control)): 75
Plant response rating, Signalgrass [6, 21]: 20
Plant response rating, Signalgrass [6, 22]: 30
Plant response rating, Signalgrass [6, 17]: 60
Plant response rating, Signalgrass [6, 23]: 60
Plant response rating, Signalgrass [6, 18]: 0
Plant response rating, Signalgrass [6, 19]: 0
Plant response rating, Signalgrass [6, 20]: 75
Plant response rating, Crabgrass, Large [7, 21]: 40
Plant response rating, Crabgrass, Large [7, 22]: 65
Plant response rating, Crabgrass, Large [7, 17]: 75
Plant response rating, Crabgrass, Large [7, 23]: 70
Plant response rating, Crabgrass, Large [7, 18]: 50
Plant response rating, Crabgrass, Large [7, 19]: 75
Plant response rating, Crabgrass, Large [7, 24]: 95
Plant response rating, Crabgrass, Large [7, 20]: 100
Plant response rating, Black Mustard [8, 21]: 40
Plant response rating, Black Mustard [8, 25]: 65
Plant response rating, Black Mustard [8, 17]: 100
Plant response rating, Black Mustard [8, 23]: 100
Plant response rating, Black Mustard [8, 18]: 75
Plant response rating, Black Mustard [8, 19]: 75
Plant response rating, Black Mustard [8, 24]: 100
Plant response rating, Black Mustard [8, 20]: 100
Plant response rating, Purslane [9, 21]: 10
Plant response rating, Purslane [9, 22]: 25
Plant response rating, Purslane [9, 17]: 35
Plant response rating, Purslane [9, 23]: 35
Plant response rating, Purslane [9, 18]: 70
Plant response rating, Purslane [9, 19]: 100
Plant response rating, Purslane [9, 24]: 100
Plant response rating, Purslane [9, 20]: 100
Plant response rating, Nutsedge, Purple [10, 21]: 0
Plant response rating, Nutsedge, Purple [10, 22]: 10
Plant response rating, Nutsedge, Purple [10, 17]: 50
Plant response rating, Nutsedge, Purple [10, 23]: 20
Plant response rating, Nutsedge, Purple [10, 18]: 0
Plant response rating, Nutsedge, Purple [10, 19]: 5
Plant response rating, Nutsedge, Purple [10, 24]: 50
Plant response rating, Nutsedge, Purple [10, 20]: 75
Plant response rating, Bluegrass [11, 21]: 0
Plant response rating, Bluegrass [11, 25]: 0
Plant response rating, Bluegrass [11, 17]: 0
Plant response rating, Bluegrass [11, 23]: 0
Plant response rating, Bluegrass [11, 18]: 20
Plant response rating, Bluegrass [11, 19]: 20
Plant response rating, Bluegrass [11, 24]: 25
Plant response rating, Bluegrass [11, 20]: 35
Plant response rating, Field Bindweed [12, 21]: 0
Plant response rating, Field Bindweed [12, 22]: 15
Plant response rating, Field Bindweed [12, 17]: 40
Plant response rating, Field Bindweed [12, 23]: 25
Plant response rating, Field Bindweed [12, 18]: 0
Plant response rating, Field Bindweed [12, 19]: 0
Plant response rating, Field Bindweed [12, 24]: 40
Plant response rating, Field Bindweed [12, 20]: 70
Plant response rating, Sandbur [13, 21]: 5
Plant response rating, Sandbur [13, 22]: 5
Plant response rating, Sandbur [13, 17]: 35
Plant response rating, Sandbur [13, 23]: 20
Plant response rating, Sandbur [13, 18]: 0
Plant response rating, Sandbur [13, 19]: 25
Plant response rating, Sandbur [13, 20]: 95
Plant response rating, Quackgrass [14, 21]: 0
Plant response rating, Quackgrass [14, 22]: 0
Plant response rating, Quackgrass [14, 17]: 5
Plant response rating, Quackgrass [14, 23]: 0
Plant response rating, Quackgrass [14, 18]: 0
Plant response rating, Quackgrass [14, 19]: 0
Plant response rating, Quackgrass [14, 20]: 0
Plant response rating, Morningglory [15, 21]: 40
Plant response rating, Morningglory [15, 22]: 40
Plant response rating, Morningglory [15, 17]: 50
Plant response rating, Morningglory [15, 23]: 40
Plant response rating, Morningglory [15, 18]: 10
Plant response rating, Morningglory [15, 24]: 80
Plant response rating, Morningglory [15, 20]: 95
Plant response rating, Prickly Sida [16, 21]: 70
Plant response rating, Prickly Sida [16, 22]: 80
Plant response rating, Prickly Sida [16, 17]: 95
Plant response rating, Prickly Sida [16, 23]: 80
Plant response rating, Prickly Sida [16, 18]: 50
Plant response rating, Prickly Sida [16, 19]: 60
Plant response rating, Prickly Sida [16, 24]: 100
Plant response rating, Prickly Sida [16, 20]: 100
